Results: patent publication US10513523B2, “Imidazopyrazines and pyrazolopyrimidines and their use as AMPA receptor modulators” (Janssen Pharmaceutica NV, priority 2015, dated 2019)

The compounds below were run against GluA1o-γ8 (GRIA1o-CACNG8 fusion construct; TARP γ8 dependent AMPA receptor) (Homo sapiens (Human), UniProt P42261+Q8WXS5) (assay: Calcium flux assay (FLIPR), inhibition of glutamate response of GluA1o-γ8 channel). Details: HEK293 cells stably expressing GRIA1o-CACNG8 fusion; 15 μM glutamate; pIC50 = negative log of IC50 in molar; read-out: GluR1-γ8 (pIC50) (converted).
Assay type: cell-based
Summary of the method: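 Potency is the midpoint of a four-parameter logistic fit to control-normalized FLIPR calcium responses elicited by 15 μM glutamate. Stable HEK293 cells carried a fused GluA1o-γ8 construct and were preincubated with compound and calcium dye in pH 7.4 HEPES buffer.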

Sequence of GluA1o-γ8 (GRIA1o-CACNG8 fusion construct; TARP γ8 dependent AMPA receptor) (P42261 other isoform, or with tags, fused parts or gaps): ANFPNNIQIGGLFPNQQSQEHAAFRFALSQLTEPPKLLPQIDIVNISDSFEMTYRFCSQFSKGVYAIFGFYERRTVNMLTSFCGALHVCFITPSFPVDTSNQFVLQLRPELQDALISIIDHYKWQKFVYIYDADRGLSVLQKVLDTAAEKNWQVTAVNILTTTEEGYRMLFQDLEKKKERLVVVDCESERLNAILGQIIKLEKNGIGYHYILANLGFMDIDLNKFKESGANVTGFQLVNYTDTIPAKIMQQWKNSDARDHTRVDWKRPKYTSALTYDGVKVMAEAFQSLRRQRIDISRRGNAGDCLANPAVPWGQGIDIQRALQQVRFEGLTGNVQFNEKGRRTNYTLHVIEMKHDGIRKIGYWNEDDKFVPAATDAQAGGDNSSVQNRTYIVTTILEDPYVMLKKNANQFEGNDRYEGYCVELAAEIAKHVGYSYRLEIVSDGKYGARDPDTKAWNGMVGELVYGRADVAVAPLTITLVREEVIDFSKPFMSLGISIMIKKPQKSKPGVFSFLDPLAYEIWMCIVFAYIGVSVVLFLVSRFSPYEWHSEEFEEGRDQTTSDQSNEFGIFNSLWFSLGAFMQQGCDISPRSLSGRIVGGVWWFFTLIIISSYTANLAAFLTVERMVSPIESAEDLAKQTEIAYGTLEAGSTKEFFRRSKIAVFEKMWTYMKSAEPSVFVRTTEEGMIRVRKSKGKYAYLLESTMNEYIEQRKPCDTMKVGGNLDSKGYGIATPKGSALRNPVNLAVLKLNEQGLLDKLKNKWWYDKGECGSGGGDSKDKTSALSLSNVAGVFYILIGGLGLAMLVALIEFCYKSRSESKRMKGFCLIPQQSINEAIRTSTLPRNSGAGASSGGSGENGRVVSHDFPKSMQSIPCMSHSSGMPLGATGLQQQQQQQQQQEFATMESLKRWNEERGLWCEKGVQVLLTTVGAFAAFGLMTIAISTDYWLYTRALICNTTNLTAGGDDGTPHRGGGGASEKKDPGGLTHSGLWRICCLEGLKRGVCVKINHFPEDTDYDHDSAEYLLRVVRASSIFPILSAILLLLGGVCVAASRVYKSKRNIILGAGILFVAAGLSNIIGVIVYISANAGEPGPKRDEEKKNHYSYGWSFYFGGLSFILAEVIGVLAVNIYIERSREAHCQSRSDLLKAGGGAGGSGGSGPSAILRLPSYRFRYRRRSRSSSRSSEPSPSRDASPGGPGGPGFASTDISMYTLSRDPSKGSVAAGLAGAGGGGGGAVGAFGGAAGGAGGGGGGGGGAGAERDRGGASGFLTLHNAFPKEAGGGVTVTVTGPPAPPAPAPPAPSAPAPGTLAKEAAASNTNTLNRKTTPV

Going from `O=C1Cc2cc(-c3c(-c4ccc(F)cc4)nc4c(NC5CCNC5=O)nccn34)ccc2N1` (centres unmarked) [Example 40, 5-[2-(4-Fluorophenyl)-8-[(2-oxopyrrolidin-3-yl)amino]imidazo[1,2-a]pyrazin-3-yl]indolin-2-one] to `O=C1Cc2cc(-c3c(-c4ccc(F)cc4)nc4c(N5CC(F)C5)nccn34)ccc2N1` [Example 59, 5-[8-(3-Fluoroazetidin-1-yl)-2-(4-fluorophenyl)imidazo[1,2-a]pyrazin-3-yl]indolin-2-one], the IC50 falls from 251 nM to 0.501 nM (500-fold).

First: CCN(CC)c1nccn2c(-c3ccc4c(c3)CC(=O)N4)c(-c3ccc(F)cc3)nc12 [Example 51, 5-[8-(Diethylamino)-2-(4-fluorophenyl)imidazo[1,2-a]pyrazin-3-yl]indolin-2-one]
Second: O=C1Cc2cc(-c3c(-c4ccc(F)cc4)nc4cnccn34)ccc2N1 [Example 135, 5-(2-(4-Fluorophenyl)imidazo[1,2-a]pyrazin-3-yl)indolin-2-one]
The IC50 of the first is 25-fold lower: 3.98 nM for the first, 100 nM for the second.

`O=C1Cc2cc(-c3c(-c4ccc(F)cc4)nc4c(N5CCO[C@H](C(F)(F)F)C5)nccn34)ccc2N1` (single isomer, unassigned) [Example 49, (S*)-5-[2-(4-Fluorophenyl)-8-[2-(trifluoromethyl)morpholin-4-yl]imidazo[1,2-a]pyrazin-3-yl]indolin-2-one] and `O=C1Cc2cc(-c3c(-c4ccc(F)cc4)nc4c(N5CCOC(C(F)(F)F)C5)nccn34)ccc2N1` (centres unmarked) [Example 42, 5-[2-(4-Fluorophenyl)-8-[2-(trifluoromethyl)morpholin-4-yl]imidazo[1,2-a]pyrazin-3-yl]indolin-2-one] are the same in IC50: 7.94 nM for the first, 7.94 nM for the second.

First: O=C1Cc2cc(-c3c(-c4ccc(F)cc4)nc4c(N5CCS(=O)(=O)CC5)nccn34)ccc2N1 [Example 47, 5-[8-(1,1-Dioxo-1,4-thiazinan-4-yl)-2-(4-fluorophenyl)imidazo[1,2-a]pyrazin-3-yl]indolin-2-one]
Second: O=C1Cc2cc(-c3c(-c4ccc(F)cc4)nc4c(N5CCC6(CC5)N=N6)nccn34)ccc2N1 [Example 185, 5-(2-(4-Fluorophenyl)-8-(1,2,6-triazaspiro[2.5]oct-1-en-6-yl)imidazo[1,2-a]pyrazin-3-yl)indolin-2-one]
The IC50 of the first is 2.5-fold higher: 0.398 nM for the first, 0.158 nM for the second.

`Cc1cnc(N2CCOCC2)n2nc(C(C)C)c(-c3ccc4c(c3)CC(=O)N4)c12` [Example 244, 5-(2-Isopropyl-4-methyl-7-morpholino-pyrazolo[1,5-c]pyrimidin-3-yl)indolin-2-one] and `CC(C)(C)c1nn2c(N3CCOCC3)nccc2c1-c1ccc2c(c1)CC(=O)N2` [Example 182, 5-(2-tert-Butyl-7-morpholino-pyrazolo[1,5-c]pyrimidin-3-yl)indolin-2-one] are within 1.5-fold of each other in IC50: 79.4 nM for the first, 63.1 nM for the second.

Compared with `N#Cc1ccc(-c2nc3c(N4CCNC(=O)C4)nccn3c2-c2ccc3c(c2)CC(=O)N3)cc1` [Example 210, 4-[3-(2-Oxoindolin-5-yl)-8-(3-oxopiperazin-1-yl)imidazo[1,2-a]pyrazin-2-yl]benzonitrile], `O=C1Cc2cc(-c3c(-c4ccc(F)cc4)nc4c(N5CCCC(O)C5)nccn34)ccc2N1` (centres unmarked) [Example 54, 5-[2-(4-Fluorophenyl)-8-(3-hydroxy-1-piperidyl)imidazo[1,2-a]pyrazin-3-yl]indolin-2-one] is 63-fold lower in IC50: 20 nM for the first, 0.316 nM for the second.

Going from `O=c1[nH]c2ccc(-c3c(-c4ccc(F)cc4)nc4c(O)nccn34)cc2[nH]1` [Example 249, 5-[2-(4-Fluorophenyl)-8-hydroxy-imidazo[1,2-a]pyrazin-3-yl]-1,3-dihydrobenzimidazol-2-one] to `Nc1nccn2c(-c3ccc4[nH]c(=O)[nH]c4c3)c(-c3ccc(F)cc3)nc12` [Example 87, 5-[8-Amino-2-(4-fluorophenyl)imidazo[1,2-a]pyrazin-3-yl]-1,3-dihydrobenzimidazol-2-one], the IC50 falls from 1580 nM to 398 nM (4-fold).

`CC(=O)N1CCN(c2ncc(Br)n3c(-c4ccc5c(c4)CC(=O)N5)c(Cc4ccccc4)nc23)CC1` [Example 113, 5-(8-(4-Acetylpiperazin-1-yl)-2-benzyl-5-bromoimidazo[1,2-a]pyrazin-3-yl)indolin-2-one] and `CC(C)(C)OC(=O)N1CCN(c2nccn3c(-c4ccc5c(c4)CC(=O)N5)c(Cc4ccccc4)nc23)CC1` [Example 36, tert-Butyl 4-[2-benzyl-3-(2-oxoindolin-5-yl)imidazo[1,2-a]pyrazin-8-yl]piperazine-1-carboxylate] are the same in IC50: 0.316 nM for the first, 0.316 nM for the second.

First: O=C(NC1CC1)c1nc2c(N3CCOCC3)nccn2c1-c1ccc2[nH]c(=O)[nH]c2c1 [Example 146, N-Cyclopropyl-8-morpholino-3-(2-oxo-1,3-dihydrobenzimidazol-5-yl)imidazo[1,2-a]pyrazine-2-carboxamide]
Second: O=C1Cc2cc(-c3c(C4CCC4)nc4c(N5CCOCC5)nccn34)ccc2N1 [Example 90, 5-(2-Cyclobutyl-8-morpholino-imidazo[1,2-a]pyrazin-3-yl)indolin-2-one]
The IC50 of the first is 1.6-fold higher: 316 nM for the first, 200 nM for the second.

Going from `Cc1cc(O)ccc1-c1c(-c2ccc(F)cc2)nc2c(N3CCOCC3)nccn12` [Example 2, 4-[2-(4-Fluorophenyl)-8-morpholino-imidazo[1,2-a]pyrazin-3-yl]-3-methyl-phenol] to `Oc1ccc(-c2c(-c3cccc(F)c3)nc3c(N4CCOCC4)nccn23)cc1` [Example 4, 4-[2-(3-Fluorophenyl)-8-morpholino-imidazo[1,2-a]pyrazin-3-yl]phenol], the IC50 rises from 31.6 nM to 63.1 nM (2-fold).

First: Fc1ccc(-c2nc3c(N4CC5(COC5)C4)nccn3c2-c2ccc3[nH]ncc3c2)cc1 [Example 25, 2-[2-(4-Fluorophenyl)-3-(1H-indazol-5-yl)imidazo[1,2-a]pyrazin-8-yl]-6-oxa-2-azaspiro[3.3]heptane]
Second: Fc1ccc(-c2nc3c(N4CCOCC4)nccn3c2-c2ccc3[nH]nnc3c2)cc1 [Example 30, 4-[3-(1H-Benzotriazol-5-yl)-2-(4-fluorophenyl)imidazo[1,2-a]pyrazin-8-yl]morpholine]
The IC50 of the first is 10-fold lower: 7.94 nM for the first, 79.4 nM for the second.

First: COc1nccn2c(-c3ccc4[nH]c(=O)[nH]c4c3)c(-c3ccc(F)cc3)nc12 [Example 99, 5-[2-(4-Fluorophenyl)-8-methoxy-imidazo[1,2-a]pyrazin-3-yl]-1,3-dihydrobenzimidazol-2-one]
Second: O=c1[nH]c2ccc(-c3c(-c4ccc(F)cc4)nc4c(N5CCOCC5)nccn34)cc2s1 [Example 118, 6-[2-(4-Fluorophenyl)-8-morpholino-imidazo[1,2-a]pyrazin-3-yl]-3H-1,3-benzothiazol-2-one]
The IC50 of the first is 79-fold higher: 25.1 nM for the first, 0.316 nM for the second.

Going from `O=C1Cc2cc(-c3c(C(=O)Nc4ccccc4)nc4c(N5CCOCC5)nccn34)ccc2N1` [Example 137, 8-Morpholino-3-(2-oxoindolin-5-yl)-N-phenylimidazo[1,2-a]pyrazine-2-carboxamide] to `O=C1Cc2cc(-c3c(C(=O)c4ccccc4)nc4c(N5CCC(O)CC5)nccn34)ccc2N1` [Example 154, 5-[2-Benzoyl-8-(4-hydroxy-1-piperidyl)imidazo[1,2-a]pyrazin-3-yl]indolin-2-one], the IC50 falls from 6.31 nM to 1.58 nM (4-fold).

`CC1(O)CCN(c2nccc3c(-c4ccc5c(c4)CC(=O)N5)c(-c4ccc(F)cc4)nn23)CC1` [Example 186, 5-[2-(4-Fluorophenyl)-7-(4-hydroxy-4-methyl-1-piperidyl)pyrazolo[1,5-c]pyrimidin-3-yl]indolin-2-one] and `COC1CCN(c2nccc3c(-c4ccc5c(c4)CC(=O)N5)c(-c4ccccc4)nn23)CC1` [Example 189, 5-[7-(4-Methoxy-1-piperidyl)-2-phenyl-pyrazolo[1,5-c]pyrimidin-3-yl]indolin-2-one] are within 1.5-fold of each other in IC50: 0.2 nM for the first, 0.158 nM for the second.

First: CC(C)(C)c1nn2cnccc2c1-c1ccc2c(c1)CC(=O)N2 [Example 165, 5-(2-tert-Butylpyrazolo[1,5-c]pyrimidin-3-yl)indolin-2-one]
Second: CC(C)(C)c1nn2c(N3CC4(COC4)C3)nccc2c1-c1ccc2c(c1)CC(=O)N2 [Example 199, 5-[2-tert-Butyl-7-(6-oxa-2-azaspiro[3.3]heptan-2-yl)pyrazolo[1,5-c]pyrimidin-3-yl]indolin-2-one]
The IC50 of the first is higher: > 10000 nM for the first, 316 nM for the second.

Going from `CC(C)(C)c1nn2c(N3CCC(O)CC3)nccc2c1-c1ccc2c(c1)CC(=O)N2` [Example 181, 5-[2-tert-Butyl-7-(4-hydroxy-1-piperidyl)pyrazolo[1,5-c]pyrimidin-3-yl]indolin-2-one] to `O=C1Cc2cc(-c3c(C4CC4)nn4cnc(C(F)(F)F)cc34)ccc2N1` [Example 228, 5-[2-Cyclopropyl-5-(trifluoromethyl)pyrazolo[1,5-c]pyrimidin-3-yl]indolin-2-one], the IC50 rises from 200 nM to 39800 nM (200-fold).

First: O=C1Cc2cc(-c3c(-c4ccc(F)cc4)nc4c(N5CCC(=NO)CC5)nccn34)ccc2N1 [Example 155, 5-[2-(4-Fluorophenyl)-8-(4-hydroxyimino-1-piperidyl)imidazo[1,2-a]pyrazin-3-yl]indolin-2-one]
Second: O=c1[nH]c2ccc(-c3c(-c4ccc(F)cc4)nn4c(N5CCOCC5)nccc34)cc2o1 [Example 173, 6-[2-(4-Fluorophenyl)-7-morpholino-pyrazolo[1,5-c]pyrimidin-3-yl]-3H-1,3-benzoxazol-2-one]
The IC50 of the first is 63-fold higher: 79.4 nM for the first, 1.26 nM for the second.

Compared with `CC(C)c1nn2c(N3CCOCC3)ncc(F)c2c1-c1ccc2[nH]ncc2c1` [Example 236, 4-[4-Fluoro-3-(1H-indazol-5-yl)-2-isopropyl-pyrazolo[1,5-c]pyrimidin-7-yl]morpholine], `CC(C)Oc1nccc2c(-c3ccc4c(c3)CC(=O)N4)c(-c3ccccc3)nn12` [Example 194, 5-(7-Isopropoxy-2-phenyl-pyrazolo[1,5-c]pyrimidin-3-yl)indolin-2-one] is 5-fold lower in IC50: 158 nM for the first, 31.6 nM for the second.

`O=c1[nH]c2ccc(-c3c(C4CC4)nc4cnc(C(F)(F)F)cn34)cc2s1` [Example 216, 6-[2-Cyclopropyl-6-(trifluoromethyl)imidazo[1,2-a]pyrazin-3-yl]-3H-1,3-benzothiazol-2-one] and `O=c1[nH]c2ccc(-c3c(-c4ccccc4)nn4cnc(C(F)(F)F)cc34)cc2o1` [Example 223, 6-[2-Phenyl-5-(trifluoromethyl)pyrazolo[1,5-c]pyrimidin-3-yl]-3H-1,3-benzoxazol-2-one] are the same in IC50: 501 nM for the first, 501 nM for the second.
